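Tested at 5 concentrations; 48 h exposure; 96-well plates; endpoints linearly interpolated, else capped at highest concentration. TGI: total growth inhibition.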
Columns and labels:
Assay in all cases: NCI tumour cell line growth inhibition, 48 h
[1] = test system: SK-MEL-2 melanoma
[2] = test system: HL-60(TB) leukemia
[3] = test system: SF-539 CNS
[4] = test system: CAKI-1 renal
[5] = test system: OVCAR-4 ovarian
[6] = test system: HOP-62 NSCLC
[7] = test system: CCRF-CEM leukemia
[8] = test system: HOP-18 NSCLC
[9] = test system: KM20L2 colon
[10] = test system: SK-MEL-5 melanoma
[11] = test system: DMS 114 small cell lung
[12] = test system: RXF 393 renal
[13] = test system: HCT-15 colon
[14] = test system: OVCAR-8 ovarian
[15] = test system: HT29 colon
[16] = test system: U251 CNS
[17] = test system: DLD-1 colon
[18] = test system: UO-31 renal
[19] = test system: SR leukemia
[20] = test system: NCI-H522 lung
[21] = test system: EKVX NSCLC
[22] = test system: SK-OV-3 ovarian
[23] = test system: KM12 colon
[24] = test system: M19-MEL melanoma
[25] = test system: SNB-19 CNS
[26] = test system: SW-620 colon
[27] = test system: 786-0 renal
[28] = test system: TK-10 renal
[29] = test system: A498 renal
[30] = test system: LXFL 529 NSCLC
[31] = test system: HCT-116 colon
[32] = test system: IGROV1 ovarian
[33] = test system: NCI-H226 lung
[34] = test system: XF 498 CNS
[35] = test system: OVCAR-3 ovarian
[36] = test system: SN12C renal
[37] = test system: UACC-62 melanoma
[38] = test system: DMS 273 small cell lung
[39] = test system: ACHN renal
[40] = test system: NCI-H460 lung
[41] = test system: OVCAR-5 ovarian
[42] = test system: M14 melanoma
[43] = test system: SNB-75 CNS
[44] = test system: HOP-92 NSCLC
[45] = test system: MOLT-4 leukemia
[46] = test system: SF-295 CNS
[47] = test system: K-562 leukemia
[48] = test system: A549 NSCLC
[49] = test system: MALME-3M melanoma
[50] = test system: NCI-H23 lung
[51] = test system: RPMI-8226 leukemia
[52] = test system: LOX IMVI melanoma
[53] = test system: SNB-78 CNS
[54] = test system: SK-MEL-28 melanoma
[55] = test system: UACC-257 melanoma
[56] = test system: COLO 205 colon
[57] = test system: HCC-2998 colon
[58] = test system: SF-268 CNS
[59] = test system: RXF-631 renal

Measured: TGI

COc1ccc(-c2c(C3=NCCCN3)nnn2-c2ccccc2)cc1
not listed: [59]
> 100 µM: all other assays above

COc1ccc2ccccc2c1C1=NC(C)(C)CO1
not listed: [11] | [29] | [38] | [41] | [52] | [53] | [57]
> 100 µM: all other assays above

From PubChem BioAssay (NCI)
